Tests used:
[1] = tested on: Beet Armyworm (BAW) (Spodoptera exigua); experiment: Bioassays on Beet Armyworm (BAW), 128-well diet tray assay; type: in vivo; conditions: 168 h, 50 μg/cm^2 test compound on artificial diet, second instar larvae, 25° C., five to seven days, average of eight wells, read-out: BAW Rating (% mortality)
Method: (§1) Certain molecules disclosed in this document were tested against BAW and CEW using procedures described in the following examples. In the reporting of the results, the “BAW & CEW Rating Table” was used (See Table Section).
Bioassays on BAW (Spodoptera exigua)
Bioassays on BAW were conducted using a 128-well diet tray assay. one to five second instar BAW larvae were placed in each well (3 mL) of the diet tray that had been previously filled with 1 mL of artificial diet to which 50 μg/cm^2 of the test compound (dissolved in 50 μL of 90:10 acetone-water mixture) had been applied (to each of eight wells) and then allowed to dry. Trays were covered with a clear self-adhesive cover, and held at 25° C., 14:10 light-dark for five to seven days. Percent mortality was recorded for the larvae in each well; activity in the eight wells was then averaged. The results are indicated in the table entitled “Table 3: Assay Results” (See Table Section).

[2] = tested on: Corn Earworm (CEW) (Helicoverpa zea); experiment: Bioassays on Corn Earworm (CEW), 128-well diet tray assay; type: in vivo; conditions: 168 h, 50 μg/cm^2 test compound on artificial diet, second instar larvae, 25° C., five to seven days, average of eight wells, read-out: CEW Rating (% mortality)
Method: as §1
Bioassays on CEW (Helicoverpa zea)
Bioassays on CEW were conducted using a 128-well diet tray assay. one to five second instar CEW larvae were placed in each well (3 mL) of the diet tray that had been previously filled with 1 mL of artificial diet to which 50 μg/cm^2 of the test compound (dissolved in 50 μL of 90:10 acetone-water mixture) had been applied (to each of eight wells) and then allowed to dry. Trays were covered with a clear self-adhesive cover, and held at 25° C., 14:10 light-dark for five to seven days. Percent mortality was recorded for the larvae in each well; activity in the eight wells was then averaged. The results are indicated in the table entitled “Table 3: Assay Results” (See Table Section).

Row | SMILES | mortality at 50 µg/cm2 [1] [%] | mortality at 50 µg/cm2 [2] [%]
1 | CNC(=O)c1ccc(/C=C/C(c2cc(Cl)cc(Cl)c2)C(F)(F)F)cc1 (centres unmarked) [AC1] | 0 | 0
2 | CN(C)C(=O)c1ccc(/C=C/C(c2cc(Cl)cc(Cl)c2)C(F)(F)F)cc1 (centres unmarked) [AC3] | 0 | 0
3 | O=C(NCC(F)(F)F)c1ccc(/C=C/C(c2cc(Cl)cc(Cl)c2)C(F)(F)F)cc1 (centres unmarked) [AC4] | 0 | 50 to 100
4 | O=C(c1ccc(/C=C/C(c2cc(Cl)cc(Cl)c2)C(F)(F)F)cc1)N1CCOCC1 (centres unmarked) [AC5] | 0 | 0
5 | Cc1cc(/C=C/C(c2cc(Cl)cc(Cl)c2)C(F)(F)F)ccc1C(=O)NCC(F)(F)F (centres unmarked) [AC6, (E)-4-(3-(3,5-dichlorophenyl)-4,4,4-trifluorobut-1-enyl)-2-methyl-N-(2,2,2-trifluoroethyl)benzamide] | 0 | 50 to 100
6 | Cc1cc(/C=C/C(c2cc(Cl)cc(Cl)c2)C(F)(F)F)ccc1C(=O)NCc1ccc(Cl)nc1 (centres unmarked) [AC7] | 50 to 100 | 50 to 100
7 | Cc1cc(/C=C/C(c2cc(Cl)cc(Cl)c2)C(F)(F)F)ccc1C(=O)N1CCCC1=O (centres unmarked) [AC8] | 0 | 0 to 50
8 | Cc1cc(/C=C/C(c2cc(Cl)cc(Cl)c2)C(F)(F)F)ccc1C(=O)NCc1ccccc1F (centres unmarked) [AC9] | 50 to 100 | 50 to 100
9 | Cc1cc(/C=C/C(c2cc(Cl)cc(Cl)c2)C(F)(F)F)ccc1C(=O)NC1CSC1 (centres unmarked) [AC10] | 50 to 100 | 50 to 100
10 | Cc1cc(/C=C/C(c2cc(Cl)cc(Cl)c2)C(F)(F)F)ccc1C(=O)NCc1ccccc1 (centres unmarked) [AC11] | 50 to 100 | 50 to 100
11 | Cc1cc(/C=C/C(c2cc(Cl)cc(Cl)c2)C(F)(F)F)ccc1C(=O)NCc1ccccn1 (centres unmarked) [AC12] | 50 to 100 | 50 to 100
12 | Cc1cc(/C=C/C(c2cc(Cl)cc(Cl)c2)C(F)(F)F)ccc1C(=O)NC1CS(=O)(=O)C1 (centres unmarked) [AC13] | 50 to 100 | 50 to 100
13 | Cc1cc(/C=C/C(c2cc(Cl)cc(Cl)c2)C(F)(F)F)ccc1C(=O)NCc1cccnc1 (centres unmarked) [AC14] | 50 to 100 | 0 to 50
14 | Cc1cc(/C=C/C(c2cc(Cl)cc(Cl)c2)C(F)(F)F)ccc1C(=O)NCc1cnc(Cl)s1 (centres unmarked) [AC15] | 50 to 100 | 50 to 100
15 | Cc1cc(/C=C/C(c2cc(Cl)cc(Cl)c2)C(F)(F)F)ccc1C(=O)NC(C)(C)c1ccccn1 (centres unmarked) [AC16] | 50 to 100 | 50 to 100
16 | Cc1cc(/C=C/C(c2cc(Cl)cc(Cl)c2)C(F)(F)F)ccc1C(=O)NNc1ccccc1F (centres unmarked) [AC17] | 50 to 100 | 50 to 100
17 | Cc1cc(/C=C/C(c2cc(Cl)cc(Cl)c2)C(F)(F)F)ccc1C(=O)NCc1ncccn1 (centres unmarked) [AC18] | 50 to 100 | 50 to 100
18 | Cc1cc(/C=C/C(c2cc(Cl)cc(Cl)c2)C(F)(F)F)ccc1C(=O)NCC1CCOC1 (centres unmarked) [AC19] | 0 | 0
19 | Cc1cc(/C=C/C(c2cc(Cl)cc(Cl)c2)C(F)(F)F)ccc1C(=O)NCc1ccoc1 (centres unmarked) [AC20] | 50 to 100 | 50 to 100
20 | Cc1cc(/C=C/C(c2cc(Cl)cc(Cl)c2)C(F)(F)F)ccc1C(=O)NOCc1ccc(Cl)nc1 (centres unmarked) [AC21] | 0 | 0
21 | Cc1cc(/C=C/C(c2cc(Cl)c(Cl)c(Cl)c2)C(F)(F)F)ccc1C(=O)NCc1ccc(Cl)nc1 (centres unmarked) [AC22] | 50 to 100 | 50 to 100
22 | Cc1cc(/C=C/C(c2cc(Cl)c(Cl)c(Cl)c2)C(F)(F)F)ccc1C(=O)NC1CSC1 (centres unmarked) [AC23] | 50 to 100 | 50 to 100
23 | Cc1cc(/C=C/C(c2cc(Cl)cc(Cl)c2)C(F)(F)F)ccc1C(=O)NCC(=O)NCC(F)(F)F (centres unmarked) [AC24] | 50 to 100 | 50 to 100
24 | Cc1cc(/C=C/C(c2cc(Cl)c(Cl)c(Cl)c2)C(F)(F)F)ccc1C(=O)NC1CS(=O)(=O)C1 (centres unmarked) [AC25] | 50 to 100 | 50 to 100
25 | Cc1cc(/C=C/C(c2cc(Cl)c(Cl)c(Cl)c2)C(F)(F)F)ccc1C(=O)NCc1cnc(Cl)s1 (centres unmarked) [AC26] | 50 to 100 | 50 to 100

Reference: patent US9615576B2, “Pesticidal compositions and processes related thereto” (Dow AgroSciences LLC, priority 2011, dated 2017)
